According to ChEMBL document CHEMBL5728321, “Therapeutically active compounds and their methods of use” (2021):

Assay: In Vitro Assays for IDH1m (R132H or R132C) Inhibitors: In the primary reaction, the reduction of α-KG acid to 2-HG is accompanied by a concomitant oxidation of NADPH to NADP. The amount of NADPH remaining at the end of the reaction time is measured in a secondary diaphorase/resazurin reaction in which the NADPH is consumed in a 1:1 molar ratio with the conversion of resazurin to the highly fluorescent resorufin. […] The mixture of compound, enzyme, and cofactor is pre-incubated at room temperature for 1 hr prior to the addition of alpha-ketoglutarate. To perform the secondary reaction, 10 uL of 1× buffer containing 36 μg/ml diaphorase and 30 mM resazurin is added to the primary reaction and incubated for a further 5 minutes at 25° C. Florescence is read on a Spectramax platereader at Ex 544 Em 590. Compounds or compound dilutions are prepared in 100% DMSO concentration and diluted 1:50 into the final reaction. IDH1 wt/IDH1 R132C is assayed under similar conditions except that 1× Buffer is 50 mM K2HPO4, pH 6.5; 10 mM MgCl2; 10% glycerol; 0.03% (w/v) bovine serum albumin and final concentrations are 0.4 ug/mL (4.3 nM) IDH1 wt/IDH1 R132C heterodimer, 0.02 mM alpha-ketoglutarate, 4 uM NADPH, and either 300 μM NADP (saturated) or 30 μM NADP (without saturation). IC50s are determined.IDH1 or IDH2 wildtype (wt) and mutant heterodimers are expressed and purified by methods known in the art. For example, IDH1wt/R132m heterodimer is expressed and purified as follows. Co-expression of IDH1wt-his and IDH1R132C-flag is carried out in sf9 insect cells. Cells (25 g) are resuspended in 250 ml of 50 mM Tris, 500 mM NaCl, pH7.4, at 4° C. with stirring. Cells are disrupted with 4 passes through an M-Y110 Micro fluidizer (Microfluidics) set to 500 psi, and then centrifuged at 22,000 rcf for 20 min at 4° C. The supernatant is harvested and loaded at 15 cm/h on a Histrap FF 5*1 ml column (GE) which is equilibrated with 50 mM Tris, 500 mM NaCl, pH7.4. Host cell contaminants are removed by washing the column with equilibration buffer followed by equilibration buffer containing 20 mM imidazole and 60 mM imidazole to baseline. IDH1wt-his homodimer and IDH1wt-his/IDH1R132C-flag are eluted by equilibration buffer containing 250 mM imidazole. Fractions eluted by 250 mM imidazole are pooled together and loaded at 15 cm/h onto a column pre-packed with 10 ml ANTI-FLAG® M2 Affinity Gel (Sigma), the column is equilibrated with 50 mM Tris, 500 mM NaCl, pH7.4. After washing with equilibration buffer, IDH1wt-his/IDH1R132C-flag heterodimer is eluted by equilibration buffer containing flag peptide (0.2 mg/ml). Aliquots of IDH1wt-his/IDH1R132C-flag are flash frozen in liquid N2 and stored at −80° C. Same conditions are used for the purification of IDH1wt-his/IDH1R132H-flag.

IC50 | SMILES
in the range around 75 nM | N#CC1(c2cc(Nc3nc(NCC(F)(F)F)nc(-c4cccc(C(F)(F)F)n4)n3)ccn2)CC1
in the range around 75 nM | N#CC1(c2cc(Nc3nc(NC4CC5(C4)CC(F)(F)C5)nc(-c4cccc(C(F)(F)F)n4)n3)ccn2)CC1
< 50 nM | N#CC1(c2cc(Nc3nc(NC4CCC(F)(F)C4)nc(-c4cccc(C(F)(F)F)n4)n3)ccn2)CC1 (centres undefined)
< 50 nM | N#CC1(c2cc(Nc3nc(NC4CCC(F)(F)CC4)nc(-c4cccc(C(F)(F)F)n4)n3)ccn2)CC1
